Key:
[1] = compared with morphine; cited from earlier work
[2] = target: FABP3 (Homo sapiens (Human), UniProt P05413); assay: DAUDA, ANS or NBD-stearate fluorescence displacement binding assay, FABP3; conditions: average ± S.E. of at least three independent experiments
[3] = target: FABP7 (Homo sapiens (Human), UniProt O15540); assay: DAUDA, ANS or NBD-stearate fluorescence displacement binding assay, FABP7; conditions: average ± S.E. of at least three independent experiments
[4] = target: T1, FABP5 (Homo sapiens (Human), UniProt Q01469); assay: DAUDA, ANS or NBD-stearate fluorescence displacement binding assay, FABP5; conditions: average ± S.E. of at least three independent experiments
T1 sequence (Q01469 whole entry, species assumed): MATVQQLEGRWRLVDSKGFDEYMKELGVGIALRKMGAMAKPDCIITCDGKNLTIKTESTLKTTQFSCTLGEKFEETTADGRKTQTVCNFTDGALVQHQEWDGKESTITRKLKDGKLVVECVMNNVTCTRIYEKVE
Experimental: FABP5 (30 μg), NBD-stearate (1 μM), and a competitor test compound were incubated in 30 mM Tris-HCl, 100 mM NaCl buffer (pH 7.6). […] The initial assay was run with buffer (30 mM Tris-HCl buffer), negative controls (buffer and NBD-stearate), positive controls (buffer, NBD-stearate, FABP5), and experimental wells with a variable test compound added (arachidonic acid or one of the 48 test compounds) at 10 μM. […] GraphPad Prism was also used to determine the Ki of these select competitors from the equation Ki=IC50/(1+([NBD-stearate]/Kd)). The Kd of NBD-stearate for FABP5 had been determined previously through incubating FABP5 with increasing concentrations of NBD-stearate.
Determination of Ki was derived from DAUDA or NBD-stearate displacement assays (see Table 1).

[5] = target: T1, FABP5; conditions: read-out: Kd of NBD-stearate for FABP5; cited from earlier work
[6] = test system: formalin induced pain; conditions: formalin induced mouse models; cited from earlier work

Chain of FABP3 (P05413 whole entry, species assumed): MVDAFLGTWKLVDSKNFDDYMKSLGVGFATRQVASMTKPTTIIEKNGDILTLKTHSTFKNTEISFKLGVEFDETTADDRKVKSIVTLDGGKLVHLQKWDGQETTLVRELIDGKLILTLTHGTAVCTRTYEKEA
Chain of FABP7 (O15540 whole entry, species assumed): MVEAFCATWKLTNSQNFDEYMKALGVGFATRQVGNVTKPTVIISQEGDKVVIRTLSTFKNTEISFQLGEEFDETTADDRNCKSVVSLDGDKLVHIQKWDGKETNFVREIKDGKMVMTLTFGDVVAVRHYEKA

Structure (SMILES) | antinociceptive properties [1] | Ki [2] [nM] | Ki [3] [nM] | Ki [4] [nM] | Kd [5] [nM] | antinociceptive effect in early and late stage pain [6]
COc1cc([C@H]2[C@H](C(=O)O[C@@H]3C[C@@H]4[C@@H](CN(C)C[C@@H]4C)[C@@H]3C)[C@H](c3ccc(O)c(OC)c3)[C@H]2C(=O)O[C@@H]2C[C@@H]3[C@@H](CN(C)C[C@@H]3C)[C@@H]2C)ccc1O [(−)-incarvillateine] | antinociceptive properties on the same level as morphine | – | – | – | – | –
O=C(O)[C@H]1[C@@H](c2ccccc2)[C@H](C(=O)OCc2ccccc2)[C@@H]1c1ccccc1 [Compound 3a, Benzyl α-2,4-diphenylcyclobutane-1,3-dicarboxylate] | – | > 10000 | – | – | – | –
COc1ccc(COC(=O)[C@H]2[C@@H](c3ccccc3)[C@H](C(=O)O)[C@@H]2c2ccccc2)cc1 [Compound 3b, 4-Methoxybenzyl α-2,4-diphenylcyclobutane-1,3-dicarboxylate] | – | > 10000 | 1140 ± 60 | 2150 ± 100 | – | –
O=C(O)[C@H]1[C@H](c2ccccc2)[C@H](C(=O)OCc2ccc(F)cc2)[C@H]1c1ccccc1 [Compound 3c, 4-Fluorobenzyl α-2,4-diphenylcyclobutane-1,3-dicarboxylate] | – | > 10000 | 1650 ± 210 | 2420 ± 180 | – | –
O=C(O)[C@H]1[C@H](c2ccccc2)[C@H](C(=O)OCc2ccc(Br)cc2)[C@H]1c1ccccc1 [Compound 3d, 4-Bromobenzyl α-2,4-diphenylcyclobutane-1,3-dicarboxylate] | – | > 10000 | 1250 ± 30 | 1580 ± 160 | – | –
O=C(O)[C@H]1[C@H](c2ccccc2)[C@H](C(=O)Oc2ccccc2I)[C@H]1c1ccccc1 [Compound 3e] | – | 1180 ± 100 | 940 ± 340 | 1340 ± 210 | – | –
O=C(O)[C@H]1[C@H](c2ccccc2)[C@H](C(=O)Oc2cccc(-c3ccccc3)c2)[C@H]1c1ccccc1 [Compound 3h, Biphenyl-3-yl α-2,4-Diphenylcyclobutane-1,3-dicarboxylate] | – | 9750 ± 790 | 740 ± 170 | – | – | –
O=C(O)[C@H]1[C@H](c2ccccc2)[C@H](C(=O)Oc2ccc(-c3ccccc3)cc2)[C@H]1c1ccccc1 [Compound 3i] | – | 3930 ± 160 | 2270 ± 30 | 2520 ± 360 | – | –
O=C(O)[C@H]1[C@H](c2ccccc2)[C@H](C(=O)Oc2ccccc2-c2ccccc2O)[C@H]1c1ccccc1 [Compound 3j, 2′-HO-biphenyl-2-yl α-2,4-diphenylcyclobutane-1,3-dicarboxylate] | – | 3520 ± 530 | 540 ± 180 | 1590 ± 430 | – | –
O=C(O)[C@H]1[C@H](c2ccccc2)[C@H](C(=O)Oc2ccc(Cl)c(Cl)c2Cl)[C@H]1c1ccccc1 [Compound 3k] | – | 2980 ± 850 | 540 ± 20 | – | – | –
O=C(O)[C@H]1[C@H](c2ccccc2)[C@H](C(=O)OC2Cc3ccccc3C2)[C@H]1c1ccccc1 [Compound 3m, Indan-2-yl α-2,4-diphenylcyclobutane-1,3-dicarboxylate] | – | > 10000 | 2410 ± 90 | – | – | –
C#Cc1cccc2c(OC(=O)[C@H]3[C@@H](c4ccccc4)[C@H](C(=O)O)[C@@H]3c3ccccc3)cccc12 [Compound 3p, 5-Ethynylnaphth-1-yl α-2,4-diphenylcyclobutane-1,3-dicarboxylate] | – | 4940 ± 310 | 1030 ± 220 | 3920 ± 750 | – | –
O=C(O)[C@H]1[C@H](c2ccccc2)[C@H](C(=O)OCC2c3ccccc3-c3ccccc32)[C@H]1c1ccccc1 [Compound 3q, 9-Fluorenylmethyl α-2,4-diphenylcyclobutane-1,3-dicarboxylate] | – | > 10000 | 2700 ± 620 | 2560 ± 160 | – | –
O=C(O)[C@H]1[C@@H](c2ccccc2)[C@H](C(=O)OCC(F)(F)F)[C@@H]1c1ccccc1 [Compound 3r, 2,2,2-Trifluoroethyl α-2,4-diphenylcyclobutane-1,3-dicarboxylate] | – | > 10000 | – | > 10000 | – | –
O=C(O)C1C(c2ccccc2)C(C(=O)OC2CCCCC2)C1c1ccccc1 (stereo not drawn) [Compound 3s, Cyclohexyl α-2,4-diphenylcyclobutane-1,3-dicarboxylate] | – | > 10000 | 500 ± 110 | – | – | –
CCOCCOCCOCCn1cc(-c2cccc(OC(=O)[C@H]3[C@@H](c4ccccc4)[C@H](C(=O)O)[C@@H]3c3ccccc3)c2)nn1 [Compound 3t] | – | > 10000 | 1060 ± 70 | > 10000 | – | –
COc1cc([C@H]2[C@H](C(=O)O)[C@H](c3ccc(O)c(OC)c3)[C@H]2C(=O)Oc2cccc3ccccc23)ccc1O [Compound 4a, 1-Naphthyl α-2,4-di(3-methoxy-4-hydroxy)cyclobutane-1,3-dicarboxylate] | – | 1060 ± 190 | 2120 ± 190 | > 10000 | – | –
O=C(O)[C@H]1[C@@H](c2ccc(O)cc2)[C@H](C(=O)Oc2cccc3ccccc23)[C@@H]1c1ccc(O)cc1 [Compound 4d] | – | – | – | > 10000 | – | –
COc1ccccc1C1C(C(=O)O)C(c2ccccc2OC)C1C(=O)O[C@@H]1CCCC[C@H]1c1ccccc1 (stereo partly drawn) [Compound 4e, (1R,2S)-2-Phenylcyclohexyl α-2,4-di(2-methoxylphenyl)cyclobutane-1,3-dicarboxylate] | – | 400 ± 80 | 400 ± 30 | – | – | –
O=C(O)[C@H]1[C@H](c2ccccc2Cl)[C@H](C(=O)OC2CCCC[C@H]2c2ccccc2)[C@H]1c1ccccc1Cl (stereo partly drawn) [Compound 4f, (1R,2S)-2-Phenylcyclohexyl α-2,4-di(2-chlorophenyl)cyclobutane-1,3-dicarboxyliate] | – | > 10000 | > 10000 | – | – | –
O=C(O)[C@H]1[C@H](c2c(Cl)cccc2Cl)[C@H](C(=O)OC2CCCC[C@H]2c2ccccc2)[C@H]1c1c(Cl)cccc1Cl (stereo partly drawn) [Compound 4g, (1R,2S)-2-Phenylcyclohexyl α-2,4-di(2,6-dichlorophenyl)cyclobutane-1,3-dicarboxylate] | – | > 10000 | – | – | – | –
O=C(O)C1C(c2ccccc2Br)C(C(=O)O[C@@H]2CCCC[C@H]2c2ccccc2)C1c1ccccc1Br (stereo partly drawn) [Compound 4h, (1R,2S)-2-Phenylcyclohexyl α-2,4-di(2-bromophenyl)cyclobutane-1,3-dicarboxylate] | – | > 10000 | > 10000 | – | – | –
COc1ccccc1[C@H]1[C@H](C(=O)O)[C@H](c2ccccc2OC)[C@H]1C(=O)OCC1c2ccccc2-c2ccccc21 [Compound 4j, 9-Fluorenylmethyl α-2,4-di(2-methoxylphenyl)cyclobutane-1,3-dicarboxylate] | – | > 10000 | > 10000 | – | – | –
O=C(O)[C@H]1[C@H](c2ccccc2Cl)[C@H](C(=O)OCC2c3ccccc3-c3ccccc32)[C@H]1c1ccccc1Cl [Compound 4k, 9-Fluorenylmethyl α-2,4-di(2-chlorophenyl)cyclobutane-1,3-dicarboxylate] | – | > 10000 | 3540 ± 770 | – | – | –
CCCCCCC(CCCCCCCCCCC(=O)O)N(C)c1ccc([N+](=O)[O-])c2nonc12 (centres unmarked) [NBD-stearate] | – | – | – | – | 160 | –
O=C(O)C1C(c2ccccc2)C(C(=O)O)C1c1ccccc1 (stereo not drawn) [α-truxillic acid, α-2,4-diphenylcyclobutene-1,3-dicarboxylic Acid] | – | – | – | – | – | best antinociceptive agent in both early and late stage pain

Source: patent publication US10968163B2, “Alpha-truxillic acid derivatives and pharmaceutical compositions thereof” (The Research Foundation for the State University of New York, priority 2016, dated 2021)
